# Key:
# [1] = Pharmacokinetics after oral and iv dosing to rats; assay type: in vivo, Sprague-Dawley rat; conditions: rat
# Description: Appendix 2. Pharmaco kinetics an d P l a s ma Protein Binding […]
# Pharma cokinetics. In vivo PK characteristics were determined using non- fasted Sprague-Dawle y rats (mal e, 200-300 g, 10- 16 weeks of age) with groups of three animals per route per compound. Soluble formulations were developed and verified b y HP LC/UV s o that compounds were dosed discretel y b y the iv (1 mg/kg, 1 mL/kg) and po (5 mg/kg, 5 mL/kg) routes. Blood samples were obtained at various times after dosing and plasma prepared for LC -MS-MS quantification of the test substance after inclusion of an intern al standard . PK p aramet ers were calculated usin g a non -compartmental model in WinNonlin v5.2.
# Plasma Protein Binding Assay. PPB was determined with a Rapid Equilibrium Dialysis device using 8 kDa molecular weight cut-off inserts (Fisher Scientific UK Ltd, Leicest ershire, UK) as described b y the manufacturer. R at (Sprague Dawl e y strain) plasma EDTA K2 (mixed gender, pooled, SeraLab, West Sussex, UK) was thawed and centrifuged at 13,000 x g for 10 min to remove precipitates before being spiked with compounds (5 µM). The concentrations of compounds in the plasma and buffer chambers were determined b y LC -MS-MS (AB Sciex 3200 QTrap) anal ysis after 4 h incubation at 37 °C. Binding was calculated from the concentration percentage in both chambers as shown below. Assays were p erfo rmed in replicate and the data
# [2] = target: T1, Human recombinant ADAM-17 (Homo sapiens, UniProt P78536); assay: Protease counter-screening: ADAM-17/TACE; assay type: biochemical
# T1 construct: host or cells: Sf21 insect cells
# T1 sequence (P78536 215-824): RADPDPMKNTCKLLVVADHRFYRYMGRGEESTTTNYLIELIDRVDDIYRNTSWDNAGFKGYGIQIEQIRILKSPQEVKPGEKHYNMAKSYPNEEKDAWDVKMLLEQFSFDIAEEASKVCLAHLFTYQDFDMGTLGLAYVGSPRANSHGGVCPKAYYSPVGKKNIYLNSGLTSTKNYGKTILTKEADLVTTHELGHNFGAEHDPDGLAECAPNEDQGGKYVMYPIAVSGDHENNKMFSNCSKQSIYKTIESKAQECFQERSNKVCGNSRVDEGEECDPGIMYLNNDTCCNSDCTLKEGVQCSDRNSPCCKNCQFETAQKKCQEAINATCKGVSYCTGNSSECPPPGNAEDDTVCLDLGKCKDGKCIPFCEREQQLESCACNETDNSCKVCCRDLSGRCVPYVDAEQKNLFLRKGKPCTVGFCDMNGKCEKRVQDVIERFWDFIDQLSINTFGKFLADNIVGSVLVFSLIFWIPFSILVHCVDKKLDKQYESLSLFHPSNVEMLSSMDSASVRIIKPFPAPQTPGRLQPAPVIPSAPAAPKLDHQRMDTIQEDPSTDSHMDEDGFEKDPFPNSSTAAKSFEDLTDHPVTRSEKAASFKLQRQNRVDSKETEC
# Description: (§1) Appendix 7. Protease Counter -Screening
# (§2) Protease counter-screeni ng was performed using the methods described below. Initial screening was conducted in duplicate using a single test substance concentration of 10 µ M .
# (§3) Additional assays were conducted in replicate for selected pairin gs of test s ubstance and enz yme in order to enable the determination of IC50 values using conventional procedures.
# (§4) Determination of K i was made using the Batch K i program (Biokin Ltd, Pullman, WA) to derive values from the Morrison equation: […]
# MMP-9: Human recombinant MMP-9 proenz yme ex pressed in mammalian cells was activated with APMA for 60 min at 37 °C. […] The amount of MCA-P LG formed was read spectrofluorimetricall y at 340 nm/400 nm.
# ADAM-17/TACE: Human recombinant ADAM-17 expressed in Sf21 insect cells was used as enz yme sour ce. […] T he amount of MCA-P LAQA formed w as read spectro fluorimetricall y at 340 nm/400 nm.
# Angiotensin converting enzyme: Test compound or vehicle was pre- incubated in modified HEPES buffer pH 7.5 for 15 min at 25 °C with 31 mU/mL angiotensin converting enz yme from rabbit lung. […] The amount of substrate remaining was read spectrophotometricall y at 340 nm and used to deri ve the extent of reaction and its inhibition. […]
# [3] = target: T2, human recombinant caspase 9 (Homo sapiens, UniProt P55211); assay: Protease counter-screening: Caspase 9; assay type: biochemical
# T2 construct: host or cells: E. coli
# T2 sequence (P55211 1-315 limits assumed): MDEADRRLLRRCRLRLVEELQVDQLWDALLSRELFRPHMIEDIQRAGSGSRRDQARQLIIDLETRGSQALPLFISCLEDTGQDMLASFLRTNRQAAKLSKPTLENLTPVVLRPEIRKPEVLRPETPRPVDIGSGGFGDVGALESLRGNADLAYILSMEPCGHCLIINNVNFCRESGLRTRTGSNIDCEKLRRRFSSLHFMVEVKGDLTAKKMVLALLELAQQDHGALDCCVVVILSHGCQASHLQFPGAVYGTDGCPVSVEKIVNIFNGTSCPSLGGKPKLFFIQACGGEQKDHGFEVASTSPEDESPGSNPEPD
# T2 sequence (P55211 331-416 limits assumed): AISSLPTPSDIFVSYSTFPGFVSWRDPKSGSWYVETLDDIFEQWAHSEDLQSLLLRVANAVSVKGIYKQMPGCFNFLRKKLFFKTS
# Description: as §1, §2, §3, §4
# Where [E ] is the active enz yme concentration, Kiapp is the apparent inhibition const ant, v 0 is the control velocit y in the absence of inhibitors, vb is the background velocity, v is the initial reaction velocit y in the presence of inhibitor, and I is the inhibitor concentration.Thence:
# Where [S ] is the substrate concentration and KM is the Michealis constant. […]
# by addition of 50 µM Ac-DEVD-AMC for another 60 min incubation period. The amount of AMC formed was determined fluorimetricall y (excitation 360 nm/emission 465 nm). […]
# by addition of 25 µM Ac-LEH D-A FC for another 60 min incubation period. The amount of amino-4- trifluorometh ylcoumarin (AFC) formed determined fluorimetrically (400nm/ 510nm).
# Cathepsin C: Cathepsin C from bovine spleen was used as the source of enz yme. […] T he amount of AMC product formed was read spectrofluorimetrically
compound,measurement,setting,value
"CC(C)[C@H](NC(=O)[C@H](C)NC(=O)[C@@H](NC(=O)c1ccccc1)C(C)(C)C)C(=O)C(=O)NCc1ccccc1 [Compound 38, N-{(S)-1-[(S)-1-((S)-1-Benzylaminooxalyl-2-methyl-propylcarbamoyl)-ethylcarbamoyl]-2,2-dimethyl-propyl}-benzamide]",Cmax,"[1]; male, Sprague-Dawley, plasma, 5 mg/kg po, mean ± SE, n = 3",732 ± 3 nM
same,bioavailability,"[1]; male, Sprague-Dawley, plasma, po, 5 mg/kg, 5 mg/kg po compared with 1 mg/kg iv, nonfasted Sprague–Dawley rats, mean ± SE, n = 3, read-out: F % (bioavailability)",33 ± 8%
same,free conc Cmax,[1]; 5 mg/kg po,29 ± 0 nM
same,inhibition at 10 µM,[2],0%
same,inhibition at 10 µM,[3],0%

# From publication PMC4257840 (Journal of Medicinal Chemistry, 2014)
